According to US8933230B2, “Phosphorus-containing group-substituted quinoline, its preparation process, medical composition containing the compounds and application” (priority 2011, dated 2015):

Tests used:
Assay in all cases: KinomeScan kinase panel
Assay type in all cases: binding
TNK2 = biological target: T1, TNK2 (Homo sapiens, UniProt Q07912)
T1 construct: purchased DiscoveRx Corporation (KinomeScan)
Summary of the method: (§1)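 The compound was profiled across a 442-kinase KinomeScan binding panel at a fixed concentration of 1000 nM; values reflect inhibitory effect at that one dose.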

EPHA7 = biological target: T2, EPHA7 (Homo sapiens, UniProt Q15375)
T2 construct: purchased DiscoveRx Corporation (KinomeScan)
Summary of the method: as §1

TESK1 = biological target: T3, TESK1 (Homo sapiens, UniProt Q15569)
T3 construct: purchased DiscoveRx Corporation (KinomeScan)
Summary of the method: as §1

MAK = biological target: T4, MAK (Homo sapiens, UniProt P20794)
T4 construct: purchased DiscoveRx Corporation (KinomeScan)
Summary of the method: as §1

TYRO3 = biological target: T5, TYRO3 (Homo sapiens, UniProt Q06418)
T5 construct: purchased DiscoveRx Corporation (KinomeScan service)
Summary of the method: as §1

ALK = biological target: T6, ALK (Homo sapiens, UniProt Q9UM73)
T6 construct: purchased DiscoveRx Corporation (KinomeScan)
Summary of the method: as §1

P38-alpha = biological target: T7, P38-alpha (Homo sapiens, UniProt Q16539)
T7 construct: purchased DiscoveRx Corporation (KinomeScan panel)
Summary of the method: as §1

SLK = biological target: T8, SLK (Homo sapiens, UniProt Q9H2G2)
T8 construct: purchased DiscoveRx Corporation (KinomeScan)
Summary of the method: as §1

DYRK1B = biological target: T9, DYRK1B (Homo sapiens, UniProt Q9Y463)
T9 construct: purchased DiscoveRx Corporation (KinomeScan)
Summary of the method: as §1

P38-delta = biological target: T10, P38-delta (Homo sapiens, UniProt O15264)
T10 construct: purchased DiscoveRx Corporation (KinomeScan panel)
Summary of the method: as §1

GRK4 = biological target: T11, GRK4 (Homo sapiens, UniProt P32298)
T11 construct: purchased DiscoveRx Corporation (KinomeScan)
Summary of the method: as §1

PKN2 = biological target: T12, PKN2 (Homo sapiens, UniProt Q16513)
T12 construct: purchased DiscoveRx Corporation (KinomeScan)
Summary of the method: as §1

MET = biological target: T13, MET (Homo sapiens, UniProt P08581)
T13 construct: purchased DiscoveRx Corporation (KinomeScan)
Summary of the method: as §1

MYO3B = biological target: T14, MYO3B (Homo sapiens, UniProt Q8WXR4)
T14 construct: purchased DiscoveRx Corporation (KinomeScan)
Summary of the method: as §1

MAP3K3 = biological target: T15, MAP3K3 (Homo sapiens, UniProt Q99759)
T15 construct: purchased DiscoveRx Corporation (KinomeScan)
Summary of the method: as §1

CAMK1 = biological target: T16, CAMK1 (Homo sapiens, UniProt Q14012)
T16 construct: purchased DiscoveRx Corporation (KinomeScan)
Summary of the method: as §1

CLK3 = biological target: T17, CLK3 (Homo sapiens, UniProt P49761)
T17 construct: purchased DiscoveRx Corporation (KinomeScan)
Summary of the method: as §1

MST1 = biological target: T18, MST1 (Homo sapiens, UniProt Q13043)
T18 construct: purchased DiscoveRx Corporation (KinomeScan)
Summary of the method: as §1

LTK = biological target: T19, LTK (Homo sapiens, UniProt P29376)
T19 construct: purchased DiscoveRx Corporation (KinomeScan)
Summary of the method: as §1

TLK2 = biological target: T20, TLK2 (Homo sapiens, UniProt Q86UE8)
T20 construct: purchased DiscoveRx Corporation (KinomeScan)
Summary of the method: as §1

PCTK3 = biological target: T21, PCTK3 (Homo sapiens, UniProt Q07002)
T21 construct: purchased DiscoveRx Corporation (KinomeScan panel)
Summary of the method: as §1

MAP4K4 = biological target: T22, MAP4K4 (Homo sapiens, UniProt O95819)
T22 construct: purchased DiscoveRx Corporation (KinomeScan)
Summary of the method: as §1

PRKD1 = biological target: T23, PRKD1 (Homo sapiens, UniProt Q15139)
T23 construct: purchased DiscoveRx Corporation (KinomeScan)
Summary of the method: as §1

CSNK1G2 = biological target: T24, CSNK1G2 (Homo sapiens, UniProt P78368)
T24 construct: purchased DiscoveRx Corporation (KinomeScan)
Summary of the method: as §1

CSNK2A1 = biological target: T25, CSNK2A1 (Homo sapiens, UniProt P68400)
T25 construct: purchased DiscoveRx Corporation (KinomeScan)
Summary of the method: as §1

DAPK2 = biological target: T26, DAPK2 (Homo sapiens, UniProt Q9UIK4)
T26 construct: purchased DiscoveRx Corporation (KinomeScan)
Summary of the method: as §1

EPHB3 = biological target: T27, EPHB3 (Homo sapiens, UniProt P54753)
T27 construct: purchased DiscoveRx Corporation (KinomeScan)
Summary of the method: as §1

PCTK1 = biological target: T28, PCTK1 (Homo sapiens, UniProt Q00536)
T28 construct: purchased DiscoveRx Corporation (KinomeScan panel)
Summary of the method: as §1

FLT4 = biological target: T29, FLT4 (Homo sapiens, UniProt P35916)
T29 construct: purchased DiscoveRx Corporation (KinomeScan)
Summary of the method: as §1

PAKC-beta = biological target: T30, PAKC-beta (Homo sapiens, UniProt P22694)
T30 construct: purchased DiscoveRx Corporation (KinomeScan)
Summary of the method: as §1

SRPK1 = biological target: T31, SRPK1 (Homo sapiens, UniProt Q96SB4)
T31 construct: purchased DiscoveRx Corporation (KinomeScan)
Summary of the method: as §1

BIKE = biological target: T32, BIKE (Homo sapiens, UniProt Q9NSY1)
T32 construct: purchased DiscoveRx Corporation (KinomeScan)
Summary of the method: as §1

MYLK4 = biological target: T33, MYLK4 (Homo sapiens, UniProt Q86YV6)
T33 construct: purchased DiscoveRx Corporation (KinomeScan)
Summary of the method: as §1

AKT2 = biological target: T34, AKT2 (Homo sapiens, UniProt P31751)
T34 construct: purchased DiscoveRx Corporation (KinomeScan)
Summary of the method: as §1

IRAK1 = biological target: T35, IRAK1 (Homo sapiens, UniProt P51617)
T35 construct: purchased DiscoveRx Corporation (KinomeScan)
Summary of the method: as §1

SYK = biological target: T36, SYK (Homo sapiens, UniProt P43405)
T36 construct: purchased DiscoveRx Corporation (KinomeScan)
Summary of the method: as §1

YSK1 = biological target: T37, YSK1 (Homo sapiens, UniProt O00506)
T37 construct: purchased DiscoveRx Corporation (KinomeScan service)
Summary of the method: as §1

T21 sequence (Q07002 whole entry): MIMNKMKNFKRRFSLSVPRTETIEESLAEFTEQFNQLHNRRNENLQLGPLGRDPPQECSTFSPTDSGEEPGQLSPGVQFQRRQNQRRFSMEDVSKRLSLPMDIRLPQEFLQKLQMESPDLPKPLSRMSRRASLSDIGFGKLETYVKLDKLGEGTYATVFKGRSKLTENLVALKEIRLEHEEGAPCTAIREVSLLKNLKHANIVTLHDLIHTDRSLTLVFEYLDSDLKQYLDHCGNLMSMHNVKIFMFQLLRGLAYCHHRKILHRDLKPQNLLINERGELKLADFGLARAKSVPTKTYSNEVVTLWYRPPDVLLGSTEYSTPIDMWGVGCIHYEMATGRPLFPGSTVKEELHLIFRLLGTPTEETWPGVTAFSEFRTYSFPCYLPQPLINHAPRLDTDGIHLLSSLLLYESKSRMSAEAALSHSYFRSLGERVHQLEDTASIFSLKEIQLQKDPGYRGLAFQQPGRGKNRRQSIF
T32 sequence (Q9NSY1 whole entry): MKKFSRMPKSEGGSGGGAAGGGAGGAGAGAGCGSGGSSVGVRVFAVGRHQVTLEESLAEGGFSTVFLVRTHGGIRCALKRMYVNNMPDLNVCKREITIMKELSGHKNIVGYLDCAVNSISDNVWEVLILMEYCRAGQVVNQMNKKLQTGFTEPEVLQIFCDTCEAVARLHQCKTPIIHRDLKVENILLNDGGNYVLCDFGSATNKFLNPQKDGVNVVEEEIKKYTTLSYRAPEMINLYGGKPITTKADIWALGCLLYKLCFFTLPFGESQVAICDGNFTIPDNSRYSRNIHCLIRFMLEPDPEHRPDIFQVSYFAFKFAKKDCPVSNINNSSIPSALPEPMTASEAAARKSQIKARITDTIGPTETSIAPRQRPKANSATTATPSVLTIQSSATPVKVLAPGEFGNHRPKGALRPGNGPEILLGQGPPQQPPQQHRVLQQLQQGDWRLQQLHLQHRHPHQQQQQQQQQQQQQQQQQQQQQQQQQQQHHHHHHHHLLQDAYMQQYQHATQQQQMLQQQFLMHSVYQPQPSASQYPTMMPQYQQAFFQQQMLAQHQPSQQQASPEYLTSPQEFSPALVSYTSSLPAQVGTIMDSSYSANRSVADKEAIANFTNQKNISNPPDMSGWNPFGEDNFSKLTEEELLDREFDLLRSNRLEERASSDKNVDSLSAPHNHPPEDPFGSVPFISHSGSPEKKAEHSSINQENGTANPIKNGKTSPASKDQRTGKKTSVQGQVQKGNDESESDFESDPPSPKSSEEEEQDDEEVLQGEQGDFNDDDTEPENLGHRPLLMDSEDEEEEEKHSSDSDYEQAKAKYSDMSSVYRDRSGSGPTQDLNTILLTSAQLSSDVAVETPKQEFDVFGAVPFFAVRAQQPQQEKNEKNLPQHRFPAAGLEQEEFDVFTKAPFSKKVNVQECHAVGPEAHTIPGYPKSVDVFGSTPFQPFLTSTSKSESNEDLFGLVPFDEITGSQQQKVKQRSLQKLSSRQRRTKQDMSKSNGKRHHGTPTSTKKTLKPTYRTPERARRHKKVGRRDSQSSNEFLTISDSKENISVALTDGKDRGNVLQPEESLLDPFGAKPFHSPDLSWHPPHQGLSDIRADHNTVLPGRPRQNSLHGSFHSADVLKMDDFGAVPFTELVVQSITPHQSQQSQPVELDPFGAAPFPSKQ
T12 sequence (Q16513 whole entry): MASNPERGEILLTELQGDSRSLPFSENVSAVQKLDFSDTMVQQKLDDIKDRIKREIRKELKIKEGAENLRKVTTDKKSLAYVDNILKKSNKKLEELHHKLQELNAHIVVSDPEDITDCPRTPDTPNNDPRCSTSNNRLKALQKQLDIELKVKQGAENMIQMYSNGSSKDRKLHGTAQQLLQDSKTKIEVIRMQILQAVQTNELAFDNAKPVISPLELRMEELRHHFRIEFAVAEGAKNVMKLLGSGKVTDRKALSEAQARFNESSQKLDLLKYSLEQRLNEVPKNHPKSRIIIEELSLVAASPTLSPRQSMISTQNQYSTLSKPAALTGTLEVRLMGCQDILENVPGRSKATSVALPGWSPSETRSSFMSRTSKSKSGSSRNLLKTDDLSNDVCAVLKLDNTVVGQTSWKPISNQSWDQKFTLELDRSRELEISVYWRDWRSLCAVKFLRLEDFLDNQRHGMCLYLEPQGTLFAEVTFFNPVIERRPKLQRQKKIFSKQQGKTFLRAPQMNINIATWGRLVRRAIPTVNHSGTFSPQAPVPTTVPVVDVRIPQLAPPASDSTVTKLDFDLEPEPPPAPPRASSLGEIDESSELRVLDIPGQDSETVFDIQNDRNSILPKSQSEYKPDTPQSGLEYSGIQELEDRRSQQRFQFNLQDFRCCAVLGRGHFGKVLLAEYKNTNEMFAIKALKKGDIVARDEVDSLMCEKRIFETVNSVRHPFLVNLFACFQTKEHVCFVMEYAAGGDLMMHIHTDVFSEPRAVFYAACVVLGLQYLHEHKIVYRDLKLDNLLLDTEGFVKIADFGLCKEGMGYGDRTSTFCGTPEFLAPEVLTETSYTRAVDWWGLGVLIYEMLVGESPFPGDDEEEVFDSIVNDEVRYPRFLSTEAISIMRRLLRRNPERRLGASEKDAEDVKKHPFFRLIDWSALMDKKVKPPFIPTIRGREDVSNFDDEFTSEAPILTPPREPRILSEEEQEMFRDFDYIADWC
T35 sequence (P51617 whole entry): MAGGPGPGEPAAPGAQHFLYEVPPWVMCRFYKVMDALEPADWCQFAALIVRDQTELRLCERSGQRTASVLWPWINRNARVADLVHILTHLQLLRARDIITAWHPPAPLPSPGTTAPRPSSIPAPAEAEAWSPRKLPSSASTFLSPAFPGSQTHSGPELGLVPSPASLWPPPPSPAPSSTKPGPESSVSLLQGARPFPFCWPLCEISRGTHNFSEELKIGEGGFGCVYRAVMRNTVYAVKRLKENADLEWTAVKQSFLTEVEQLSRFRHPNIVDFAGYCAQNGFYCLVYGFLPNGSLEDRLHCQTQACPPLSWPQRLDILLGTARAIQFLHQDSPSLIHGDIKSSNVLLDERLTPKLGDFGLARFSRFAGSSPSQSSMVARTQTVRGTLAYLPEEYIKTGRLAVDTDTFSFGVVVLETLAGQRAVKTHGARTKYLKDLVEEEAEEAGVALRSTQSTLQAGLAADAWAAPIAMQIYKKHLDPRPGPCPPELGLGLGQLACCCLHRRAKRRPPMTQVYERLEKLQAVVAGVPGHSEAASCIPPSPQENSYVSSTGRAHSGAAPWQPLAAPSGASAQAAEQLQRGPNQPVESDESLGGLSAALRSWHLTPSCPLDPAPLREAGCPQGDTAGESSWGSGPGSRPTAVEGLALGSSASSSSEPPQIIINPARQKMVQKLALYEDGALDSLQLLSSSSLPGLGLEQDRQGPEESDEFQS
T33 sequence (Q86YV6 whole entry): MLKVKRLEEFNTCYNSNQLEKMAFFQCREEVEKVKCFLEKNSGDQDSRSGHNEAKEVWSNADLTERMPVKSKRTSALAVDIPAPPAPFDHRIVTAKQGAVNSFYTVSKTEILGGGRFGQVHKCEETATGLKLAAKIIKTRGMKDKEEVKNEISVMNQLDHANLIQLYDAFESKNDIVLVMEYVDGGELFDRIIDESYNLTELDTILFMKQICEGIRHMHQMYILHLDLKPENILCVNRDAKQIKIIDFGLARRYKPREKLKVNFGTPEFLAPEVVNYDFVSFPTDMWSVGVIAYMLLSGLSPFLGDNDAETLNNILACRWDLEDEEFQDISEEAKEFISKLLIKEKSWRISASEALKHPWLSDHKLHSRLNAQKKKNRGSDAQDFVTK
T22 sequence (O95819 whole entry): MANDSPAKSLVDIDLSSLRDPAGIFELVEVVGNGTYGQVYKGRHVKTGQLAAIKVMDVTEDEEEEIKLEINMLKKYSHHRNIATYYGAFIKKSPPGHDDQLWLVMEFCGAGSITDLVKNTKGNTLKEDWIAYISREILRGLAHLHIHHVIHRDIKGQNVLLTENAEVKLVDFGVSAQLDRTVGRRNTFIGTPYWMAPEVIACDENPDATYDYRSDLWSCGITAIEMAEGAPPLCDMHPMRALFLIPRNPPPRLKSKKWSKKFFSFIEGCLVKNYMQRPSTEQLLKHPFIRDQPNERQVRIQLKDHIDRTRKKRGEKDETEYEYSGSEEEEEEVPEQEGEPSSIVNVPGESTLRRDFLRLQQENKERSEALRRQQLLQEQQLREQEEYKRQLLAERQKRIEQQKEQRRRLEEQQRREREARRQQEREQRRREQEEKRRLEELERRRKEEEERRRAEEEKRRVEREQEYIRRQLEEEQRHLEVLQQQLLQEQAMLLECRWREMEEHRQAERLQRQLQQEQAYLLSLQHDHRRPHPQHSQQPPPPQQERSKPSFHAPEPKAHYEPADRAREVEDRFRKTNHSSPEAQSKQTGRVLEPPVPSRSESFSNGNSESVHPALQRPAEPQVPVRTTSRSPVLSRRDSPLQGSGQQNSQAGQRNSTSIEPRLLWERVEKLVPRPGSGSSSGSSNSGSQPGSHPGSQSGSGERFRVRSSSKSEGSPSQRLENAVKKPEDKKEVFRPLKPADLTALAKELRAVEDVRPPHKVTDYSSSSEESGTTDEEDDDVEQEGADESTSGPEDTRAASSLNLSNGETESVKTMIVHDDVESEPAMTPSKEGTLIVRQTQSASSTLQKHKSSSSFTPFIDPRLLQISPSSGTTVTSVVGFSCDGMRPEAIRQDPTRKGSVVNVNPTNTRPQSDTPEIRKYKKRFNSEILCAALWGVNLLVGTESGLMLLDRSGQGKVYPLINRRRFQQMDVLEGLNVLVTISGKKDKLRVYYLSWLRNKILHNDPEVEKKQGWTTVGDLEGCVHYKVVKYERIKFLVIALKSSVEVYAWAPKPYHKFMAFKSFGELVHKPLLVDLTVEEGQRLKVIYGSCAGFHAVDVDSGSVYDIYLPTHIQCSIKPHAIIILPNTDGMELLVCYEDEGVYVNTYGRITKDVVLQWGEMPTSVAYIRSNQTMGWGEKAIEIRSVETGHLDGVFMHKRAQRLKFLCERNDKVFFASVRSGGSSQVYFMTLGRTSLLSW

SMILES: CCOP(=O)(CN1CCC(COc2cc3nccc(Oc4ccc(NC(=O)C5(C(=O)Nc6ccc(F)cc6)CC5)cc4F)c3cc2OC)CC1)OCC [Example 10, N1-[4-[[7-[[1-(diethoxyphosphorylmethyl)-4-piperidinyl]methoxyl]-6-methoxyl-4-quinolyl]oxyl]-3-fluorophenyl]-N1′-(4-fluorophenyl)cyclopropane-1,1-dicarboxamide]
- % Ctrl@1000 nM (TNK2): 94 % Ctrl
- % Ctrl@1000 nM (EPHA7): 0.8 % Ctrl
- % Ctrl@1000 nM (TESK1): 39 % Ctrl
- % Ctrl@1000 nM (MAK): 100 % Ctrl
- % Ctrl@1000 nM (TYRO3): 41 % Ctrl
- % Ctrl@1000 nM (ALK): 15 % Ctrl
- % Ctrl@1000 nM (P38-alpha): 53 % Ctrl
- % Ctrl@1000 nM (SLK): 7.4 % Ctrl
- % Ctrl@1000 nM (DYRK1B): 86 % Ctrl
- % Ctrl@1000 nM (P38-delta): 53 % Ctrl
- % Ctrl@1000 nM (GRK4): 78 % Ctrl
- % Ctrl@1000 nM (PKN2): 2.6 % Ctrl
- % Ctrl@1000 nM (MET): 7.7 % Ctrl
- % Ctrl@1000 nM (MYO3B): 100 % Ctrl
- % Ctrl@1000 nM (MAP3K3): 100 % Ctrl
- % Ctrl@1000 nM (CAMK1): 78 % Ctrl
- % Ctrl@1000 nM (CLK3): 100 % Ctrl
- % Ctrl@1000 nM (MST1): 100 % Ctrl
- % Ctrl@1000 nM (LTK): 26 % Ctrl
- % Ctrl@1000 nM (TLK2): 100 % Ctrl
- % Ctrl@1000 nM (PCTK3): 100 % Ctrl
- % Ctrl@1000 nM (MAP4K4): 100 % Ctrl
- % Ctrl@1000 nM (PRKD1): 100 % Ctrl
- % Ctrl@1000 nM (CSNK1G2): 100 % Ctrl
- % Ctrl@1000 nM (CSNK2A1): 100 % Ctrl
- % Ctrl@1000 nM (DAPK2): 100 % Ctrl
- % Ctrl@1000 nM (EPHB3): 36 % Ctrl
- % Ctrl@1000 nM (PCTK1): 100 % Ctrl
- % Ctrl@1000 nM (FLT4): 0.2 % Ctrl
- % Ctrl@1000 nM (PAKC-beta): 100 % Ctrl
- % Ctrl@1000 nM (SRPK1): 70 % Ctrl
- % Ctrl@1000 nM (BIKE): 100 % Ctrl
- % Ctrl@1000 nM (MYLK4): 100 % Ctrl
- % Ctrl@1000 nM (AKT2): 100 % Ctrl
- % Ctrl@1000 nM (IRAK1): 100 % Ctrl
- % Ctrl@1000 nM (SYK): 58 % Ctrl
- % Ctrl@1000 nM (YSK1): 57 % Ctrl
